Here are results for 31 compounds from patent publication US7829589B2, “Sulfonamide compounds and uses thereof” (Elixir Pharmaceuticals, Inc., priority 2005, dated 2010).

SMILES strings stand for the structures. A value given as a limit tells only on which side of the number the result lay.

Broadly, the Ki is a dissociation constant, usually derived from enzyme kinetics or from competition with a known ligand. Read a high Ki as a looser hold on the target.

Sequence of GHS-R (Q92847 whole entry, species assumed): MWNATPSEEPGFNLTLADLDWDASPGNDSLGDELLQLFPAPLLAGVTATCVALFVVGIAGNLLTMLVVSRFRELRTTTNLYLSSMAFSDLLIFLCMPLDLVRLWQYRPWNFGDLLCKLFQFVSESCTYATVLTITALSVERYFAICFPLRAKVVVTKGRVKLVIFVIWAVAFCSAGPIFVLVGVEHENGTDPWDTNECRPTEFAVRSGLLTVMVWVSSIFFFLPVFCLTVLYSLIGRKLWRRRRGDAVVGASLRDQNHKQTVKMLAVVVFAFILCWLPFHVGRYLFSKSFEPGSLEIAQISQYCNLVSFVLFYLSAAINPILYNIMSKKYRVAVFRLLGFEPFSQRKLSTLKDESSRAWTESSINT

This experiment addresses GHS-R (Homo sapiens, UniProt Q92847). Briefly: GHS-R antagonist activity (Ki) in a cell based assay. An outline of the steps:
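Transfected COS-7 cells were labelled 24 h with [^3H]-myo-inositol and preincubated 30 min at 37 °C in HEPES buffer pH 7.4 with 10 mM LiCl, optionally with 1 U/ml adenosine deaminase. Compound was applied for 45 min at 37 °C. [^3H]-inositol phosphates were extracted with perchloric acid and isolated by anion-exchange resin.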
As for `CCN(CC)CCCS(=O)(=O)N[C@H](CCc1ccccc1)c1nc(-c2cnccc2C)no1` [Compound 83, 3-Diethylamino-propane-1-sulfonic acid {(R)-1-[3-(4-methyl-pyridin-3-yl)-[1,2,4]oxadiazol-5-yl]-3-phenyl-propyl}-amide], the Ki is 0.1 to 0.5 µM.

Regarding `CCN(CC)CCS(=O)(=O)N[C@H](CCc1ccccc1)c1nc(Cc2ccc(Br)cc2)no1` [Compound 84, 2-Diethylamino-ethanesulfonic acid {(R)-1-[3-(4-bromo-benzyl)-[1,2,4]oxadiazol-5-yl]-3-phenyl-propyl}-amide], the Ki fell in the range of 0.1 to 0.5 µM.

With `CCN(CC)CCS(=O)(=O)N[C@H](CCc1ccccc1)c1nc(-c2ccc(Br)cc2C)no1` [Compound 85, 2-Diethylamino-ethanesulfonic acid {(R)-1-[3-(4-bromo-2-methyl-phenyl)-[1,2,4]oxadiazol-5-yl]-3-phenyl-propyl}-amide], the Ki was at least 1 µM.

`CCN(CC)CCS(=O)(=O)N[C@H](CCc1ccccc1)c1nc(-c2ccc(C)cc2)no1` [Compound 86, 2-Diethylamino-ethanesulfonic acid [(R)-3-phenyl-1-(3-p-tolyl-[1,2,4]oxadiazol-5-yl)-propyl]-amide] yielded a Ki of 0.1 to 0.5 µM.

`CCN(CC)CCS(=O)(=O)N[C@H](CCc1ccccc1)c1nc(Cc2ccccc2C)no1` [Compound 87, 2-Diethylamino-ethanesulfonic acid {(R)-1-[3-(2-methyl-benzyl)-[1,2,4]oxadiazol-5-yl]-3-phenyl-propyl}-amide] returned a Ki of 0.1 to 0.5 µM.

`CCN(CC)CCS(=O)(=O)N[C@H](CCc1ccccc1)c1nc(-c2ccc(OC)cc2)no1` [Compound 88, 2-Diethylamino-ethanesulfonic acid {(R)-1-[3-(4-methoxy-phenyl)-[1,2,4]oxadiazol-5-yl]-3-phenyl-propyl}-amide] gave an inhibition constant Ki of at least 1 µM.

Take `CCN(CC)CCS(=O)(=O)N[C@H](CCc1ccccc1)c1nc(-c2ccc(F)cc2)no1` [Compound 89, 2-Diethylamino-ethanesulfonic acid {(R)-1-[3-(4-fluoro-phenyl)-[1,2,4]oxadiazol-5-yl]-3-phenyl-propyl}-amide]: the Ki was below 0.1 µM.

As for `CCN(CC)CCS(=O)(=O)N[C@H](CCc1ccccc1)c1nc(Cc2c(Cl)cccc2Cl)no1` [Compound 90, 2-Diethylamino-ethanesulfonic acid {(R)-1-[3-(2,6-dichloro-benzyl)-[1,2,4]oxadiazol-5-yl]-3-phenyl-propyl}-amide], the Ki is below 0.1 µM.

Consider `CCN(CC)CCS(=O)(=O)N[C@H](CCc1ccccc1)c1nc(Cc2ccccc2F)no1` [Compound 91, 2-Diethylamino-ethanesulfonic acid {(R)-1-[3-(2-fluoro-benzyl)-[1,2,4]oxadiazol-5-yl]-3-phenyl-propyl}-amide], for which the Ki is 0.1 to 0.5 µM.

On to `CCN(CC)CCS(=O)(=O)N[C@H](CCc1ccccc1)c1nc(Cc2cccc(Br)c2)no1` [Compound 92, 2-Diethylamino-ethanesulfonic acid {(R)-1-[3-(3-bromo-benzyl)-[1,2,4]oxadiazol-5-yl]-3-phenyl-propyl}-amide], for which the inhibition constant (Ki) was below 0.1 µM.

On to `CCN(CC)CCS(=O)(=O)N[C@H](CCc1ccccc1)c1nc(Cc2ccccc2Br)no1` [Compound 93, 2-Diethylamino-ethanesulfonic acid {(R)-1-[3-(2-bromo-benzyl)-[1,2,4]oxadiazol-5-yl]-3-phenyl-propyl}-amide], for which the Ki was below 0.1 µM.

Compound `CCN(CC)CCCS(=O)(=O)N[C@@H](Cc1ccccc1)c1nc(-c2ccc(OC)cc2)n[nH]1` [Compound 95, 3-Diethylamino-propane-1-sulfonic acid {(S)-1-[5-(4-methoxy-phenyl)-2H-[1,2,4]triazol-3-yl]-2-phenyl-ethyl}-amide] returned a Ki below 0.1 µM.

The compound `CCN(CC)CCCS(=O)(=O)N[C@H](CCc1ccccc1)c1nc(-c2ccc(F)cc2F)n[nH]1` [Compound 96, 3-Diethylamino-propane-1-sulfonic acid {(R)-1-[5-(2,4-difluoro-phenyl)-2H-[1,2,4]triazol-3-yl]-3-phenyl-propyl}-amide] gave a Ki below 0.1 µM.

The compound `CCN(CC)CCCS(=O)(=O)N[C@H](CCc1ccccc1)c1nc(CCc2ccccc2)no1` [Compound 97, 3-Diethylamino-propane-1-sulfonic acid [(R)-1-(3-phenethyl-[1,2,4]oxadiazol-5-yl)-3-phenyl-propyl]-amide] displayed a Ki below 0.1 µM.

`CCN(CC)CCCS(=O)(=O)N[C@H](CCC(N)=O)c1nc(Cc2ccc(Br)cc2)no1` [Compound 98, (R)-4-[3-(4-Bromo-benzyl)-[1,2,4]oxadiazol-5-yl]-4-(3-diethylamino-propane-1-sulfonylamino)-butyramide]: the inhibition constant Ki is 0.1 to 0.5 µM.

The compound `CCN(CC)CCCS(=O)(=O)N[C@H](CCc1ccccc1)c1nc(COc2ccccc2)no1` [Compound 99, 3-Diethylamino-propane-1-sulfonic acid [(R)-1-(3-phenoxymethyl-[1,2,4]oxadiazol-5-yl)-3-phenyl-propyl]-amide] had a Ki below 0.1 µM.

On to `CCN(CC)CCCS(=O)(=O)N[C@H](CCc1ccccc1)c1nc(Cc2ccccc2OC)no1` [Compound 100, 3-Diethylamino-propane-1-sulfonic acid {(R)-1-[3-(2-methoxy-benzyl)-[1,2,4]oxadiazol-5-yl]-3-phenyl-propyl}-amide], for which the Ki was below 0.1 µM.

On to `CCN(CC)CCCS(=O)(=O)N[C@H](CCc1ccccc1)c1nc(CCc2ccccc2Cl)no1` [Compound 101, 3-Diethylamino-propane-1-sulfonic acid ((R)-1-{3-[2-(2-chloro-phenyl)-ethyl]-[1,2,4]oxadiazol-5-yl}-3-phenyl-propyl)-amide], for which the Ki fell in the range of 0.1 to 0.5 µM.

Regarding `CCN(CC)CCCS(=O)(=O)N[C@H](CC(N)=O)c1nc(Cc2ccc(Br)cc2)no1` [Compound 102, (R)-3-[3-(4-Bromo-benzyl)-[1,2,4]oxadiazol-5-yl]-3-(3-diethylamino-propane-1-sulfonylamino)-propionamide], the Ki lay within 0.1 to 0.5 µM.

Take `CCN(CC)CCCS(=O)(=O)N[C@H](CCc1ccccc1)c1nc(-c2ccccc2C)n[nH]1` [Compound 104, 3-Diethylamino-propane-1-sulfonic acid [(R)-3-phenyl-1-(5-o-tolyl-2H-[1,2,4]triazol-3-yl)-propyl]-amide]: the inhibitory constant (Ki) is below 0.1 µM.

`CCN(CC)CCCS(=O)(=O)N[C@H](CCc1ccccc1)c1nc(-c2ccc(F)cc2)n[nH]1` [Compound 105, 3-Diethylamino-propane-1-sulfonic acid {(R)-1-[5-(4-fluoro-phenyl)-2H-[1,2,4]triazol-3-yl]-3-phenyl-propyl}-amide] returned a Ki below 0.1 µM.

Take `CCN(CC)CCCS(=O)(=O)N[C@H](CCc1ccccc1)c1nc(-c2ccc(OC(F)(F)F)cc2)n[nH]1` [Compound 106, 3-Diethylamino-propane-1-sulfonic acid {(R)-3-phenyl-1-[5-(4-trifluoromethoxy-phenyl)-2H-[1,2,4]triazol-3-yl]-propyl}-amide]: the Ki was below 0.1 µM.

In turn, `CCN(CC)CCCS(=O)(=O)N[C@H](CCc1ccccc1)c1nc(Cc2ccc(OC)cc2)n[nH]1` [Compound 107, 3-Diethylamino-propane-1-sulfonic acid {(R)-1-[5-(4-methoxy-benzyl)-2H-[1,2,4]triazol-3-yl]-3-phenyl-propyl}-amide] returned a Ki of 0.1 to 0.5 µM.

For the compound `CCN(CC)CCCS(=O)(=O)N[C@H](CCc1ccccc1)c1nc(-c2ccc(C)cc2)n[nH]1` [Compound 108, 3-Diethylamino-propane-1-sulfonic acid [(R)-3-phenyl-1-(5-p-tolyl-2H-[1,2,4]triazol-3-yl)-propyl]-amide], the Ki lay within 0.1 to 0.5 µM.

Consider `CCN(CC)CCCS(=O)(=O)N[C@H](CCc1ccccc1)c1nc(Cc2cccc(OC)c2)no1` [Compound 109, 3-Diethylamino-propane-1-sulfonic acid {(R)-1-[3-(3-methoxy-benzyl)-[1,2,4]oxadiazol-5-yl]-3-phenyl-propyl}-amide], for which the Ki was below 0.1 µM.

Consider `CCN(CC)CCCS(=O)(=O)N[C@H](CCc1ccccc1)c1nc(-c2ccc(N(C)C)cc2)n[nH]1` [Compound 110, 3-Diethylamino-propane-1-sulfonic acid {(R)-1-[5-(4-dimethylamino-phenyl)-2H-[1,2,4]triazol-3-yl]-3-phenyl-propyl}-amide], for which the Ki is at least 1 µM.

`CCN(CC)CCCS(=O)(=O)N[C@H](CCc1ccccc1)c1nc(Cc2ccc(OC)cc2)no1` [Compound 111, 3-Diethylamino-propane-1-sulfonic acid {(R)-1-[3-(4-methoxy-benzyl)-[1,2,4]oxadiazol-5-yl]-3-phenyl-propyl}-amide] registered a Ki below 0.1 µM.

Consider `CCN(CC)CCCS(=O)(=O)N[C@H](CCc1ccccc1)c1nc(Cc2ccccn2)no1` [Compound 112, 3-Diethylamino-propane-1-sulfonic acid [(R)-3-phenyl-1-(3-pyridin-2-ylmethyl-[1,2,4]oxadiazol-5-yl)-propyl]-amide], for which the Ki fell in the range of 0.1 to 0.5 µM.

`CCN(CC)CCCS(=O)(=O)N[C@H](CCc1ccccc1)c1nc(CCc2ccc(Br)cc2)no1` [Compound 113, 3-Diethylamino-propane-1-sulfonic acid ((R)-1-{3-[2-(4-bromo-phenyl)-ethyl]-[1,2,4]oxadiazol-5-yl}-3-phenyl-propyl)-amide] gave a Ki below 0.1 µM.

`CCN(CC)CCCS(=O)(=O)N[C@H](CCc1ccccc1)c1nc(Cc2ccccc2Cl)no1` [Compound 114, 3-Diethylamino-propane-1-sulfonic acid {(R)-1-[3-(2-chloro-benzyl)-[1,2,4]oxadiazol-5-yl]-3-phenyl-propy}-amide] gave a Ki below 0.1 µM.

`CCN(CC)CCCS(=O)(=O)N[C@H](CCc1ccccc1)c1nc(-c2ccc(OC)cc2F)n[nH]1` [Compound 115, 3-Diethylamino-propane-1-sulfonic acid {(R)-1-[5-(2-fluoro-4-methoxy-phenyl)-2H-[1,2,4]triazol-3-yl]-3-phenyl-propyl}-amide] registered a Ki below 0.1 µM.
